PMC7933434, “Entropy-driven binding of gut bacterial β-glucuronidase inhibitors ameliorates irinotecan-induced toxicity” (Communications Biology, 2021)
Where “and” joins values, the source holds several entries; their conditions need not be identical. Identical values can stand only once. Entries after “also recorded” stand apart in the source; their conditions may differ.

How the values were obtained:
BALB/c mice [1] = assay: Colon histology (hematoxylin and eosin) after oral gavage; format: in vivo, mouse; conditions: female BALB/c mice; oral gavage for 5 days; 3 at 37.5 mg per kg body weight, ASN03273363 at 65 mg
BALB/c mice [2] = assay: In vivo diarrhea test (CPT-11); set-up: species or system mouse; key to Diarrhea Score: 0: Normal stool; 1: Slight perianal staining of the coat; 2: Moderate perianal staining of the coat; 3: Watery mucosal-infused stool with severe perianal staining of the coat; Death
patients = patients taking irinotecan; cited from earlier work
HsGUS (human GUS) = biological target: T1, HsGUS (human GUS) (Homo sapiens, UniProt P08236); assay: GUS inhibition assay, hydrolysis of 4-methylumbelliferyl-β-glucuronide, HsGUS; format: biochemical; conditions: HsGUS; at 1 mM; read-out: percentage of inhibition
T1 construct: HsGUS was prepared as described[37]; made in house
T1 sequence (P08236 23-651): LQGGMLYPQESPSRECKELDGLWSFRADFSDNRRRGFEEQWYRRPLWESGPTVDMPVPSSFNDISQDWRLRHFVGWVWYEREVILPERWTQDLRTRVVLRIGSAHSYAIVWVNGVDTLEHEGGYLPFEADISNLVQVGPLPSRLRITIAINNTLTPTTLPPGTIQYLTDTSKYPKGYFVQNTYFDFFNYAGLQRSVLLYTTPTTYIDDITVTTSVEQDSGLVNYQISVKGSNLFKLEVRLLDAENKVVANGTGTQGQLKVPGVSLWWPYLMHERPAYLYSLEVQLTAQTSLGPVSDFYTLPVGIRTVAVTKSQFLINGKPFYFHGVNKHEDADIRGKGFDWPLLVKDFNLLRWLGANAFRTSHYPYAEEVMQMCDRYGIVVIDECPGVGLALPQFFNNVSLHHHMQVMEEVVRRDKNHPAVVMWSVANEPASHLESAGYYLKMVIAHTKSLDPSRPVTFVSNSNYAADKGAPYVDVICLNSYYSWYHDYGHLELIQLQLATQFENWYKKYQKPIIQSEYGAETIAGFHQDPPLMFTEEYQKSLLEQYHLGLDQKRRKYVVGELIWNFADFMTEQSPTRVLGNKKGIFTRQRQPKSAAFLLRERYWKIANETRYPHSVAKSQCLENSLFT

[3] = biological target: EcGUS (Escherichia coli GUS) (Escherichia coli, UniProt P05804); assay: biochemical
Chain of EcGUS (Escherichia coli GUS) (P05804 whole entry): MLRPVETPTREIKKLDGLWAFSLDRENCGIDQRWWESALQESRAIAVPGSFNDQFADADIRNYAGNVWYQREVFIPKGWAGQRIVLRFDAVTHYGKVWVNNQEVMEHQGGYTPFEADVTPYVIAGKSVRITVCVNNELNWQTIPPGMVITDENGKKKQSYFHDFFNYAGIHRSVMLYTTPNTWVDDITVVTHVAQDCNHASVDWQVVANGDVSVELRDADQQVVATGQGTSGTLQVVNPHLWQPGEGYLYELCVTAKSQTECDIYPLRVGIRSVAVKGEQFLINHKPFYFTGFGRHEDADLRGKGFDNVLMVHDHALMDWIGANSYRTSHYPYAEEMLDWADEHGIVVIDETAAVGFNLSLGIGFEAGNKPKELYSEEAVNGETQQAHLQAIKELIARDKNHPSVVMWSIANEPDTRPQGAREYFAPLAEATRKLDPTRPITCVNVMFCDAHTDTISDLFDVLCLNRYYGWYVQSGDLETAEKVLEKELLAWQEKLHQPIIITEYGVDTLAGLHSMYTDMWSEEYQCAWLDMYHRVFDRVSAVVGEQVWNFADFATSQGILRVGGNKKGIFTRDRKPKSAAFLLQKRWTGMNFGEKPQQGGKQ

[4] = Day 6, individual mice (Box 1-8)
[5] = Day 7, individual mice (Box 1-8)
[6] = Day 8, individual mice (Box 1-8)
[7] = Day 9, individual mice (Box 1-8)
[8] = Day 10, individual mice (Box 1-8)
[9] = Day 11, individual mice (Box 1-8)
[10] = Day 12, individual mice (Box 1-8)

CCOc1ccc(NC(=S)N(CCO)Cc2cc3cc(C)cc(C)c3[nH]c2=O)cc1 [ASN03273363, reference compound]
health of the epithelial layer and intestinal glandular structure (hematoxylin and eosin staining) (BALB/c mice [1]): neither compound affected the health of the epithelial layer or the intestinal glandular structure

CCc1c2c(nc3ccc(OC(=O)N4CCC(N5CCCCC5)CC4)cc13)-c1cc3c(c(=O)n1C2)COC(=O)[C@]3(O)CC [CPT-11, Irinotecan]
diarrhea (BALB/c mice [2]; BALB/c mice, CPT-11 only, 30 mg per kg daily, 10 days): developed diarrhea on day 7, until they reached a peak on day 11; also recorded: severe diarrhea from days 7–11
Diarrhea Score, mean (BALB/c mice [2]; Day 6, group mean): 0.0
Diarrhea Score (BALB/c mice [2]; [4]): 0
Diarrhea Score, mean (BALB/c mice [2]; Day 7, group mean): 0.0
Diarrhea Score (BALB/c mice [2]; [5]): 0
Diarrhea Score, mean (BALB/c mice [2]; Day 8, group mean): 0.25
Diarrhea Score (BALB/c mice [2]; [6]): 0 and 2
Diarrhea Score, mean (BALB/c mice [2]; Day 9, group mean): 0.429
Diarrhea Score (BALB/c mice [2]; [7]): 0 and D and 3
Diarrhea Score, mean (BALB/c mice [2]; Day 10, group mean): 1.6
Diarrhea Score (BALB/c mice [2]; [8]): 0 and D and 3 and 2
Diarrhea Score, mean (BALB/c mice [2]; Day 11, group mean): 2.3
Diarrhea Score (BALB/c mice [2]; [9]): 1 and D and 3 and 2
Diarrhea Score, mean (BALB/c mice [2]; Day 12, group mean): 2.1
Diarrhea Score (BALB/c mice [2]; [10]): 3 and 0 and D
Mean ± SEM of Diarrhea score (BALB/c mice [2]; day 9, Welch's unpaired t-test table): 0.0 ± 0.0 N=7
Mean ± SEM of Diarrhea score (BALB/c mice [2]; day 10, Welch's unpaired t-test table): 0.0 ± 0.0 N=7
Mean ± SEM of Diarrhea score (BALB/c mice [2]; day 11, Welch's unpaired t-test table): 0.2857 ± 0.1844 N=7
Mean ± SEM of Diarrhea score (BALB/c mice [2]; day 12, Welch's unpaired t-test table): 0.3333 ± 0.2108 N=6
patients at high risk of death owing to neutropenia (patients): ~ 3.5%
patients becoming dehydrated (patients): ~ 10%
patients suffering from severe delayed diarrhea (patients): 87%

CCC[C@@H]1NC[C@@H](O)[C@H](O)[C@H]1CO [Compound 11]
inhibition at 1000 µM (HsGUS (human GUS)): 4.5%
IC50 [3]: 272 µM

CCCCCC[C@@H]1NC[C@@H](O)[C@H](O)[C@H]1CO [Compound 12]
inhibition at 1000 µM (HsGUS (human GUS)): 0.6%
IC50 [3]: 24.9 µM

CCCCCCCCC[C@@H]1NC[C@@H](O)[C@H](O)[C@H]1CO [Compound 13]
inhibition at 1000 µM (HsGUS (human GUS)): -0.5%
IC50 [3]: 3.6 µM

CCCCCC[C@@H]1NC[C@@H](O)[C@H](O)[C@H]1C(=O)O [Inhibior 3]
Diarrhea Score, mean (BALB/c mice [2]; Day 6, group mean): 0.0
Diarrhea Score (BALB/c mice [2]; [4]): 0
Diarrhea Score, mean (BALB/c mice [2]; Day 7, group mean): 0.0
Diarrhea Score (BALB/c mice [2]; [5]): 0
Diarrhea Score, mean (BALB/c mice [2]; Day 8, group mean): 0.0
Diarrhea Score (BALB/c mice [2]; [6]): 0
Diarrhea Score, mean (BALB/c mice [2]; Day 9, group mean): 0.0
Diarrhea Score (BALB/c mice [2]; [7]): 0
Diarrhea Score, mean (BALB/c mice [2]; Day 10, group mean): 0.0
Diarrhea Score (BALB/c mice [2]; [8]): 0
Diarrhea Score, mean (BALB/c mice [2]; Day 11, group mean): 0.0
Diarrhea Score (BALB/c mice [2]; [9]): 0
Diarrhea Score, mean (BALB/c mice [2]; Day 12, group mean): 0.0
Diarrhea Score (BALB/c mice [2]; [10]): 0
